Measured values: PubChem BioAssay (NCI)
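Results reflect a 48-hour exposure of cells in 96-well plates to compound at five concentrations. The concentration for 50% growth inhibition is given as GI50. At the TGI there is no net growth.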

Experiments:
Assay in all cases: inhibition of tumour cell growth, NCI panel, 48 h
NCI-H23 lung = system: NCI-H23 lung
NCI-H460 lung = system: NCI-H460 lung
NCI-H522 lung = system: NCI-H522 lung
NCI/ADR-RES ovarian = system: NCI/ADR-RES ovarian
OVCAR-3 ovarian = system: OVCAR-3 ovarian
OVCAR-4 ovarian = system: OVCAR-4 ovarian
OVCAR-5 ovarian = system: OVCAR-5 ovarian
OVCAR-8 ovarian = system: OVCAR-8 ovarian
PC-3 prostate = system: PC-3 prostate
RPMI-8226 leukemia = system: RPMI-8226 leukemia
RXF 393 renal = system: RXF 393 renal
SF-268 CNS = system: SF-268 CNS
SF-295 CNS = system: SF-295 CNS
SF-539 CNS = system: SF-539 CNS
SK-MEL-2 melanoma = system: SK-MEL-2 melanoma
SK-MEL-28 melanoma = system: SK-MEL-28 melanoma
SK-MEL-5 melanoma = system: SK-MEL-5 melanoma
SK-OV-3 ovarian = system: SK-OV-3 ovarian
SN12C renal = system: SN12C renal
SNB-19 CNS = system: SNB-19 CNS
SNB-75 CNS = system: SNB-75 CNS
SR leukemia = system: SR leukemia
SW-620 colon = system: SW-620 colon
T-47D breast = system: T-47D breast
TK-10 renal = system: TK-10 renal
U251 CNS = system: U251 CNS
UACC-257 melanoma = system: UACC-257 melanoma
UACC-62 melanoma = system: UACC-62 melanoma
UO-31 renal = system: UO-31 renal

## COc1ccc(-c2nn(C(=O)NCCN(C)C)cc2-c2ccncc2)cc1Cl
NCI-H23 lung
  GI50: 6.29 µM
  TGI: 60.7 µM
NCI-H460 lung
  GI50: 3.83 µM
  TGI: 35.4 µM
NCI-H522 lung
  GI50: 1.88 µM
  TGI: 5.36 µM
NCI/ADR-RES ovarian
  GI50: 3.1 µM
  TGI: > 100 µM
OVCAR-3 ovarian
  GI50: 4.32 µM
  TGI: 39.1 µM
OVCAR-4 ovarian
  GI50: 7.87 µM
  TGI: > 100 µM
OVCAR-5 ovarian
  GI50: 15.1 µM
  TGI: > 100 µM
OVCAR-8 ovarian
  GI50: 1.73 µM
  TGI: 35.9 µM
PC-3 prostate
  GI50: 4.62 µM
  TGI: > 100 µM
RPMI-8226 leukemia
  GI50: 9.71 µM
  TGI: 81.8 µM
RXF 393 renal
  GI50: 2.19 µM
  TGI: 12.8 µM
SF-268 CNS
  GI50: 3.68 µM
  TGI: 37.2 µM
SF-295 CNS
  GI50: 3 µM
  TGI: 42.6 µM
SF-539 CNS
  GI50: 2.28 µM
  TGI: 13.1 µM
SK-MEL-2 melanoma
  GI50: 3.67 µM
  TGI: 9.48 µM
SK-MEL-28 melanoma
  GI50: 4.01 µM
  TGI: 38.3 µM
SK-MEL-5 melanoma
  GI50: 3.05 µM
  TGI: 11.4 µM
SK-OV-3 ovarian
  GI50: 3.12 µM
  TGI: 15.5 µM
SN12C renal
  GI50: 5.39 µM
  TGI: > 100 µM
SNB-19 CNS
  GI50: 5.15 µM
  TGI: > 100 µM
SNB-75 CNS
  GI50: 1.68 µM
  TGI: 6.19 µM
SR leukemia
  GI50: 6.03 µM
  TGI: > 100 µM
SW-620 colon
  GI50: 3.35 µM
  TGI: > 100 µM
T-47D breast
  GI50: 11.6 µM
  TGI: > 100 µM
TK-10 renal
  GI50: 1.86 µM
  TGI: 56.1 µM
U251 CNS
  GI50: 3.71 µM
  TGI: > 100 µM
UACC-257 melanoma
  GI50: 16.6 µM
  TGI: > 100 µM
UACC-62 melanoma
  GI50: 3.07 µM
  TGI: 14.3 µM
UO-31 renal
  GI50: 8.62 µM
  TGI: 53.6 µM
